These are literature values, as cited in EP0496548A1, “Carbacyclin analogs” (PURDUE RESEARCH FOUNDATION, priority 1991, dated 1992).

The conditions of this data set: in vivo.

Regarding `CCCCC[C@H](O)/C=C/[C@@H]1[C@H]2C/C(=C/CCCC(=O)O)C[C@H]2C[C@H]1O` [carbacyclin], the serum half-life entry (attributed to enzymatic oxidation) is “comparable to that of prostacyclin”.
Take `CCCCC[C@H](O)/C=C/[C@@H]1[C@H]2C/C(=C/CCCC(=O)O)O[C@H]2C[C@H]1O` [prostacyclin, Prostacyclin]: the half-life ('generally') is 2 to 3 min.
